Assay results taken from ChEMBL document CHEMBL2146467, “Generation and exploration of new classes of antitubercular agents: The optimization of oxazolines, oxazoles, thiazolines, thiazoles to imidazo[1,2-a]pyridines and isomeric 5,6-fused scaffolds” (Bioorg Med Chem, 2012).
Converted amounts (≈) assume the structure as drawn.

Tests used:
Format in all cases: functional
Conditions in all cases: 336 h
[1] = system: Mycobacterium tuberculosis; test: Antimycobacterial activity against isoniazid-,rifampin-,ethambutol-,kanamycin-,ofloxacin-resistant Mycobacterium tuberculosis after 14 days
[2] = system: Mycobacterium tuberculosis; test: Antimycobacterial activity against isoniazid-,rifampin-,ethambutol-,streptomycin-,kanamycin-,ofloxacin-resistant Mycobacterium tuberculosis after 14 days
[3] = system: Mycobacterium tuberculosis; test: Antimycobacterial activity against isoniazid-,rifampin-,ethambutol-,rifabutin-resistant Mycobacterium tuberculosis after 14 days

Row | SMILES | MIC90 [1] [µM] | MIC90 [2] [µM] | MIC90 [3] [µM]
1 | O=C(OCc1ccccc1)c1csc(-c2ccccc2)n1 | 16.9 (≈ 4.99 µg/mL) | 16.9 (≈ 4.99 µg/mL) | 33.9 (≈ 10 µg/mL)
2 | O=C(OCc1ccccc1)c1coc(-c2ccccc2)n1 | 8.9 (≈ 2.49 µg/mL) | 4.4 (≈ 1.23 µg/mL) | –
3 | O=[N+]([O-])c1cn2c(n1)OC[C@@H](OCc1ccc(OC(F)(F)F)cc1)C2 [PRETOMANID] | 0.22 (≈ 0.079 µg/mL) | 0.86 (≈ 0.309 µg/mL) | 0.45 (≈ 0.162 µg/mL)
4 | Cc1ccn2c(C(=O)OCc3ccccc3)c(C)nc2c1 | < 0.04 | < 0.04 | 0.57 (≈ 0.16 µg/mL)
